Common to all, as to format: in vivo, rat
One series concerns male Sprague Dawley rats. Put plainly: Pig‐a assay.
The next series has as its system peripheral blood cells. The series is described as follows: Comet assay, peripheral blood cells.
In the next series the test system is liver cells. The series is described as follows: Comet assay, liver cells.
The mark [1] stands for this setting: 1-Month Study, 40 mg/kg/day Days 1-3, Day 15, positive control.
Where [2] appears, read: 1-Month Study, 40 mg/kg/day Days 1-3, Day 29, positive control.
[3] abbreviates: 1-Month Study, 40 mg/kg/day, Day -1 (pre-treatment).
Where [4] appears, read: 3-Day Study, 40 mg/kg/day Days 1-3, Day 15, positive control.
The mark [5] stands for this setting: 3-Day Study, 40 mg/kg/day Days 1-3, Day 30, positive control.
Where [6] appears, read: 3-Day Study, 40 mg/kg/day Days 1-3, Day 45, positive control.
The mark [7] stands for this setting: 3-Day Study, 40 mg/kg/day, Day -4 (pre-treatment).
[8] abbreviates: 1-Month Study, 200 mg/kg/day Days 28-29, Day 29, positive control.
Where [9] appears, read: 3-Day Study, 200 mg/kg/day Days 2-3, Day 3, positive control.

For `CCN(N=O)C(N)=O` [ENU, N‐ethyl‐N‐nitrosourea], the “%RETs mean ± SD” value was 3.1 ± 0.4% in the series with male Sprague Dawley rats (setting [1]); 3.7 ± 0.7% in the series with male Sprague Dawley rats (setting [2]); 4.8 ± 0.7% with male Sprague Dawley rats (setting [3]); 3.3 ± 1.1% with male Sprague Dawley rats (setting [4]); 3.3 ± 0.6% in the series with male Sprague Dawley rats (setting [5]); 2.7 ± 0.7% in the series on male Sprague Dawley rats (setting [6]). Further, in the series on male Sprague Dawley rats (setting [7]), the “%RETs mean ± SD” value amounted to 3.2 ± 0.4%. In addition, the “Number of CD59‐Neg RBCs per 10^6 RBCs mean ± SD” value stood at 79.5 ± 12.3 per 10^6 RBCs with male Sprague Dawley rats (setting [1]); 211.0 ± 26.9 per 10^6 RBCs in the series on male Sprague Dawley rats (setting [2]); 0.6 ± 0.3 per 10^6 RBCs in the series on male Sprague Dawley rats (setting [3]); 97.7 ± 7.2 per 10^6 RBCs in the series on male Sprague Dawley rats (setting [4]); 256.7 ± 62.0 per 10^6 RBCs with male Sprague Dawley rats (setting [5]); 382.7 ± 26.3 per 10^6 RBCs with male Sprague Dawley rats (setting [6]). Further, in the series with male Sprague Dawley rats (setting [7]), the “Number of CD59‐Neg RBCs per 10^6 RBCs mean ± SD” value is reported as 0.4 ± 0.1 per 10^6 RBCs. The “Number of CD59‐Neg RETs per 10^6 RETs mean ± SD” value in the series with male Sprague Dawley rats (setting [1]) is listed as 356.2 ± 64.4 per 10^6 RETs; in the series with male Sprague Dawley rats (setting [2]) it was 291.4 ± 33.7 per 10^6 RETs; in the series on male Sprague Dawley rats (setting [3]), 0.5 ± 0.5 per 10^6 RETs; in the series on male Sprague Dawley rats (setting [4]), 414.2 ± 6.5 per 10^6 RETs; in the series with male Sprague Dawley rats (setting [5]), 282.7 ± 77.4 per 10^6 RETs; in the series on male Sprague Dawley rats (setting [6]), 305.9 ± 59.5 per 10^6 RETs. Besides, in the series on male Sprague Dawley rats (setting [7]), the “Number of CD59‐Neg RETs per 10^6 RETs mean ± SD” value turned out to be 1.6 ± 0.7 per 10^6 RETs.

`CCOS(C)(=O)=O` [EMS, ethyl methanesulfonate]: the “Blood % tail intensity mean ± SD” value stood at 26.41 ± 4.85 % in the series with peripheral blood cells (setting [8]) and 24.56 ± 1.94 % in the series with peripheral blood cells (setting [9]). The “Liver % tail intensity mean ± SD” value came out at 30.79 ± 10.66 % in the series on liver cells (setting [8]) and 28.07 ± 1.64 % in the series with liver cells (setting [9]).

The record behind these values is publication PMC7317746 (Environmental and Molecular Mutagenesis, 2020).
